According to paper doi:10.1101/2023.03.24.534094v2 (biorxiv, 2023):
Read-outs that look alike come from different tables or passages of the source.

Tests used:
[1] = molecular target: EpHB3 (Homo sapiens, UniProt P54753); assay: NanoBRET target engagement; type: cell-based
[2] = molecular target: EpHA2 (Homo sapiens, UniProt P29317); assay: NanoBRET target engagement; type: cell-based
[3] = molecular target: EpHA4 (Homo sapiens, UniProt P54764); assay: NanoBRET target engagement; type: cell-based
[4] = molecular target: EpHB2 (Homo sapiens, UniProt P29323); assay: NanoBRET target engagement; type: cell-based
[5] = molecular target: T1, BMX (Homo sapiens, UniProt P51813); assay: NanoBRET target engagement; type: cell-based
T1 sequence (P51813 1-675): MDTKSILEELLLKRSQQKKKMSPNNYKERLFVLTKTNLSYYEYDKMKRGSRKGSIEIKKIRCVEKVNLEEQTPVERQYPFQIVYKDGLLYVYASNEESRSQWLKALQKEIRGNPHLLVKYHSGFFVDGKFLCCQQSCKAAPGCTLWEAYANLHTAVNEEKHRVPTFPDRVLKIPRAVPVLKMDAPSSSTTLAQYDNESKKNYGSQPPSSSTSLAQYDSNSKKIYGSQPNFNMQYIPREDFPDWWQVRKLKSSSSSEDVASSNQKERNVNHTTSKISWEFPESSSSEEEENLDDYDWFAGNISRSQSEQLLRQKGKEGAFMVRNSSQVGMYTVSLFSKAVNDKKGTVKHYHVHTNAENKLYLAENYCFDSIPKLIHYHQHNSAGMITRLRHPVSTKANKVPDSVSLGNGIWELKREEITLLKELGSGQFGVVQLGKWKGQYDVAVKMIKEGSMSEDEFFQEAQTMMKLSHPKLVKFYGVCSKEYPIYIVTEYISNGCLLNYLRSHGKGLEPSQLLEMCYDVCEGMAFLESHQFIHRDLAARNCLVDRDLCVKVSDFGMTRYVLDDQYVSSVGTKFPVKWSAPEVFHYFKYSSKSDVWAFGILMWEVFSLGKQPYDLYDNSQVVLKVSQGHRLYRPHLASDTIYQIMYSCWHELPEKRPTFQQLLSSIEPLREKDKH

[6] = molecular target: EpHA5 (Homo sapiens, UniProt P54756); assay: NanoBRET target engagement; type: cell-based
[7] = molecular target: T2, MSSK1 (Homo sapiens, UniProt Q9UPE1); assay: biochemical
[8] = molecular target: EpHA2 (kinase domain) (Homo sapiens, UniProt P29317); assay: X-ray crystal structure; type: binding; conditions: co-crystal, 293 K
[9] = molecular target: T2, MSSK1; assay: biochemical; conditions: read-out: dTm 12
[10] = molecular target: CK1e (Homo sapiens, UniProt P49674); assay: biochemical; conditions: read-out: dTm 12
[11] = molecular target: SLK (Homo sapiens, UniProt Q9H2G2); assay: biochemical; conditions: read-out: dTm 12
[12] = molecular target: Erk3 (Homo sapiens, UniProt Q16659); assay: biochemical; conditions: read-out: dTm 12
[13] = molecular target: GAK (Homo sapiens, UniProt O14976); assay: NanoBRET target engagement; type: cell-based

T2 sequence (Q9UPE1 whole entry, the tested form may be a part): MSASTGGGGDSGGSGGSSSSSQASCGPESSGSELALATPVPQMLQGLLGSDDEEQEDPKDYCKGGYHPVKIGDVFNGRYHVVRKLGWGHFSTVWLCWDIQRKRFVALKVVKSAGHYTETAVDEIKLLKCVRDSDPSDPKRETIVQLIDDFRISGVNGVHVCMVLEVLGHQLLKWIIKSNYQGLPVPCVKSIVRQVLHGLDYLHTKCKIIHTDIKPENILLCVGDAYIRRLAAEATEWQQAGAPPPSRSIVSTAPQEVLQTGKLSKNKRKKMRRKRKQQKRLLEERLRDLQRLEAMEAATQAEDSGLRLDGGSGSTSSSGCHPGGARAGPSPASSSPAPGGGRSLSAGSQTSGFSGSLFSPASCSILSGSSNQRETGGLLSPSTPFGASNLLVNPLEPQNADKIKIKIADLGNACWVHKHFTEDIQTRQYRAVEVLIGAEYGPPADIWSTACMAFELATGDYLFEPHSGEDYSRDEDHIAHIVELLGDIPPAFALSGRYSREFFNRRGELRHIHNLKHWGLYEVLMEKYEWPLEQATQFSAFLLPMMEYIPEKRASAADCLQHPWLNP
EpHA2, sequence (P29317 24-976): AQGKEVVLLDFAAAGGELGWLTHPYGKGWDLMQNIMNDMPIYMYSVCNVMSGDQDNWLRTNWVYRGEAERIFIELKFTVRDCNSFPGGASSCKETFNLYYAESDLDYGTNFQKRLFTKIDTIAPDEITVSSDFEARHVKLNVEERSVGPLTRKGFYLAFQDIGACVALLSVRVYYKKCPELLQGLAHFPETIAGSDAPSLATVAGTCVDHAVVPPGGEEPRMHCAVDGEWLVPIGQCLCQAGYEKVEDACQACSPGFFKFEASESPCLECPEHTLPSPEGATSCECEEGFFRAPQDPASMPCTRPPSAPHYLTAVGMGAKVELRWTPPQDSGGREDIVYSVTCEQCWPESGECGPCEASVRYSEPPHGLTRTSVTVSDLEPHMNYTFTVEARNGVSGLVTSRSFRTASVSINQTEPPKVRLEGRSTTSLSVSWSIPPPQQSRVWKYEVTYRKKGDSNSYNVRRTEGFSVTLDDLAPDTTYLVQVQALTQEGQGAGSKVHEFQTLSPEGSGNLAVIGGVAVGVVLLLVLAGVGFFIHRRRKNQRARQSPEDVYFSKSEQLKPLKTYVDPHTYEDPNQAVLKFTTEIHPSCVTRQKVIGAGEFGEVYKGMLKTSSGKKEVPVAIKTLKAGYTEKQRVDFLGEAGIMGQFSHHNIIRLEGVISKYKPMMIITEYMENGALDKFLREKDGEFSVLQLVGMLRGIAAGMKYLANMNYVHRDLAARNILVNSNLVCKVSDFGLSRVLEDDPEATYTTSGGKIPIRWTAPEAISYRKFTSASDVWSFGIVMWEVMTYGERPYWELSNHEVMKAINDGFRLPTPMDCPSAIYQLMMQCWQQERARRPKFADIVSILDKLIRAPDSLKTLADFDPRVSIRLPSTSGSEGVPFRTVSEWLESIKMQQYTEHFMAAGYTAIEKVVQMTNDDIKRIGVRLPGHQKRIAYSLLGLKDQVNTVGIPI
EpHA4, sequence (P54764 20-986): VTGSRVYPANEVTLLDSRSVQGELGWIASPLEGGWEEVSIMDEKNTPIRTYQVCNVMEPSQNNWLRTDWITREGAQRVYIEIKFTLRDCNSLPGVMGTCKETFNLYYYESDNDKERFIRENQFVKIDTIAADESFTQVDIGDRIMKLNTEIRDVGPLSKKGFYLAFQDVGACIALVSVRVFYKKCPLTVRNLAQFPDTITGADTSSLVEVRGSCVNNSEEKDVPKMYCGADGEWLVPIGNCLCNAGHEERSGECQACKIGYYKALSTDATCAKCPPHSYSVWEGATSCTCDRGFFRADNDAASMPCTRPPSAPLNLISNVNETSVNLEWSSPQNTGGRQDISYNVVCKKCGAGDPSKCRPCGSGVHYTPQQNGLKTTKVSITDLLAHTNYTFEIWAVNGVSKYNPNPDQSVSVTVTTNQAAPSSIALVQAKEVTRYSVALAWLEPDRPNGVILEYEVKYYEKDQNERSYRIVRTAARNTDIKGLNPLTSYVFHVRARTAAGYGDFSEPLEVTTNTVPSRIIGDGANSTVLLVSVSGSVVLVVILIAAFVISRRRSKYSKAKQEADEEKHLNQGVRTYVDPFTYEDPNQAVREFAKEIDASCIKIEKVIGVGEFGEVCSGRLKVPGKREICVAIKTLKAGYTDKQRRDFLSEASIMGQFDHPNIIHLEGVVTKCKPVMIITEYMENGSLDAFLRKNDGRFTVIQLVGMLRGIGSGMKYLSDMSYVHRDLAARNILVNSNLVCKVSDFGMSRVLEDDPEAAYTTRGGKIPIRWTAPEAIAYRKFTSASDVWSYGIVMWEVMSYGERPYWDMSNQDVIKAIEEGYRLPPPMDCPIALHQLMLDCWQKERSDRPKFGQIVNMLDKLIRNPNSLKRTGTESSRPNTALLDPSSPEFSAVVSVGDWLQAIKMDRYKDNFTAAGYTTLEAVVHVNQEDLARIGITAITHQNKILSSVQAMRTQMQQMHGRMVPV
EpHB3, sequence (P54753 34-998): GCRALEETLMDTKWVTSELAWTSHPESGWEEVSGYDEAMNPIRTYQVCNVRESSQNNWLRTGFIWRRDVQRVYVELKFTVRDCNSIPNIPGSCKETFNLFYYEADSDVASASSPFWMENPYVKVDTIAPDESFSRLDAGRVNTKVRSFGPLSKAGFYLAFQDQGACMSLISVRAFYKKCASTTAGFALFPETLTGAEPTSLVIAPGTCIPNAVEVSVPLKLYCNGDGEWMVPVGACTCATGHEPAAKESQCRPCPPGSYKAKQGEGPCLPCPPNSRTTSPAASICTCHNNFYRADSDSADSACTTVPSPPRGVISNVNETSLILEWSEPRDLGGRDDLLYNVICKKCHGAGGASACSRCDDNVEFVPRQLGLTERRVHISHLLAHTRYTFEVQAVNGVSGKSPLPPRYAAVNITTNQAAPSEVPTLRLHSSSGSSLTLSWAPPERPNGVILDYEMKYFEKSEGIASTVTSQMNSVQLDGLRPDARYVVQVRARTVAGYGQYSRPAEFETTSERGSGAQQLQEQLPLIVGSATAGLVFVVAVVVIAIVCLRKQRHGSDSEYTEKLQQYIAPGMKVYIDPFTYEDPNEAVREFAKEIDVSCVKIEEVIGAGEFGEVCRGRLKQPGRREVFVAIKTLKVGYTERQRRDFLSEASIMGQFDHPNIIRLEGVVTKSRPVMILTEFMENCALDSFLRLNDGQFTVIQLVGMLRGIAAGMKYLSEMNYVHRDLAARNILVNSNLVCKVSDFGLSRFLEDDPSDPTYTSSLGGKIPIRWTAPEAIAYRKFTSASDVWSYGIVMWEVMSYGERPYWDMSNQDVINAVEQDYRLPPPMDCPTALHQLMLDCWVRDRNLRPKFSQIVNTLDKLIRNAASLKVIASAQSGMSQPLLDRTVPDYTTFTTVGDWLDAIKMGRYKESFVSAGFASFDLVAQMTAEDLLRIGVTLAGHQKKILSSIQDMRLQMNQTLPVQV
EpHB2, sequence (P29323 19-1055): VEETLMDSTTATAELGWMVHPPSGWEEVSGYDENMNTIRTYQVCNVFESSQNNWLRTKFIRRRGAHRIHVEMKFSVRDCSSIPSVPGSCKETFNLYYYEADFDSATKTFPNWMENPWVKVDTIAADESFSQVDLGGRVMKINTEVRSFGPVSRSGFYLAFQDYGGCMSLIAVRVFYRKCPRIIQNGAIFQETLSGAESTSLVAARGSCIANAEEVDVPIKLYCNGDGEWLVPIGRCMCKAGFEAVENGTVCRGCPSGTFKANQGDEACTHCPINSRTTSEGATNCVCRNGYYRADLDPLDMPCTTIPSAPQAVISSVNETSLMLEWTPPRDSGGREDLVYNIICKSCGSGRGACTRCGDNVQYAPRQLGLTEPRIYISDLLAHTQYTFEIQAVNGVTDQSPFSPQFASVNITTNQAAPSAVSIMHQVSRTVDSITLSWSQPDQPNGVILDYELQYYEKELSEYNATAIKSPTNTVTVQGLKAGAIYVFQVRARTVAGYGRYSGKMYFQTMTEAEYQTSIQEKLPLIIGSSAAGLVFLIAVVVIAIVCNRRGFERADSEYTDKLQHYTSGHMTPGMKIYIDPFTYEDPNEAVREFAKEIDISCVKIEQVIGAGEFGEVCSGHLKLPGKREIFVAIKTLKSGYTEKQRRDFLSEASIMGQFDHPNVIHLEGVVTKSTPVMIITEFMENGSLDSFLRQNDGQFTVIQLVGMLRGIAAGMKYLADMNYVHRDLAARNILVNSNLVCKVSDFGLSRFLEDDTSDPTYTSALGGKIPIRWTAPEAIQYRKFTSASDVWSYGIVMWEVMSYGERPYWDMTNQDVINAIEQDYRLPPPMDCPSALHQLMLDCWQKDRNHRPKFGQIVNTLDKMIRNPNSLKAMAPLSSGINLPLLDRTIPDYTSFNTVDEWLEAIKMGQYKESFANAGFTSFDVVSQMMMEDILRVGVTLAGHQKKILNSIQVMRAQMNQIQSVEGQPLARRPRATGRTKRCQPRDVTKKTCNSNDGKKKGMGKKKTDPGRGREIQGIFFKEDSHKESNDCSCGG
EpHA2 (kinase domain), sequence (P29317 596-900): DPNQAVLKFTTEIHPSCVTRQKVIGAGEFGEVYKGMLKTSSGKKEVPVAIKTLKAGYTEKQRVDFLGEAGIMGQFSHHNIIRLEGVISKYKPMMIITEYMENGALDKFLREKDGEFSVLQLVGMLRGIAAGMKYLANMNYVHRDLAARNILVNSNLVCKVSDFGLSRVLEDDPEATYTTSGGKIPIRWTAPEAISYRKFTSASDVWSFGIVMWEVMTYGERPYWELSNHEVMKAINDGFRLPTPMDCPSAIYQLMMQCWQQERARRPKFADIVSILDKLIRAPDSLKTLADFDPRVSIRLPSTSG

Row | SMILES | IC50 [1] | IC50 [2] | IC50 [3] | IC50 [4] | IC50 [6] | other results
1 | CNc1ncc2cc(-c3cc(F)ccc3F)c(=O)n(CCCCN)c2n1 [compound 5, 8-(4-Aminobutyl)-6-(2,5-difluorophenyl)-2-(methylamino)pyrido[2,3-d]pyrimidin-7(8H)-one] |  |  |  |  |  | ΔTm at 10 µM ([7]; read-out: dTm MR22 (5)): -0.1 °C
2 | CNc1ncc2cc(-c3cc(C(F)(F)F)ccc3Cl)c(=O)n(CCCCN)c2n1 [compound 9, 8-(4-Aminobutyl)-6-(2-chloro-5-(trifluoromethyl)phenyl)-2-(methylamino)pyrido[2,3-d]pyrimidin-7(8H)-one] |  |  |  |  |  | X-ray crystal structure [8]: 8BIO (EpHA2-9 complex)
3 | CNc1ncc2cc(-c3cc(F)c(-c4cccc(C)n4)cc3F)c(=O)n(CCCCN)c2n1 [compound 12, 8-(4-Aminobutyl)-6-(2,5-difluoro-4-(6-methylpyridin-2-yl)phenyl)-2-(methylamino)pyrido[2,3-d]pyrimidin-7(8H)-one] |  |  |  |  |  | ΔTm at 10 µM [9]: -0.2 °C; ΔTm at 10 µM [10]: 3.1 °C; ΔTm at 10 µM [11]: 2.9 °C; ΔTm at 10 µM [12]: 0.7 °C

More lines, main results first:

Row | IC50 [1] | IC50 [2] | IC50 [3] | IC50 [4] | IC50 [6] | SMILES | other results
4 | > 1000 nM | > 1000 nM | 346 ± 1 nM | > 1000 nM | > 1000 nM | CNc1ncc2cc(-c3cc(Cl)ccc3Cl)c(=O)n(CCCCN)c2n1 [compound 8, 8-(4-Aminobutyl)-6-(2,5-dichlorophenyl)-2-(methylamino)pyrido[2,3-d]pyrimidin-7(8H)-one] | IC50 [5]: > 1000 nM
5 | > 1000 nM | 210 ± 36 nM | 66 ± 38 nM | > 1000 nM | 928 ± 6 nM | CNc1ncc2cc(-c3ccccc3Cl)c(=O)n(CCCCN)c2n1 [compound 4, 8-(4-Aminobutyl)-6-(2-chlorophenyl)-2-(methylamino)pyrido[2,3-d]pyrimidin-7(8H)-one] | IC50 [13]: > 1000 nM; ΔTm at 10 µM ([7]; read-out: dTm MR21 (4)): 0.2 °C
